Like-named read-outs stand apart in the source and are kept apart here.
Target: T1, rat mGluR5 (Rattus norvegicus, UniProt P31424)
T1 construct: expressed in transfected cells; host or cells: human embryonic kidney (HEK) cells
Assay: potentiation of mGluR5 response to glutamate, Ca2+ fluorescence (FDSS) in HEK cells transfected with rat mGluR5
Type: cell-based
Details: for EC50: read-out: EC50
Description: Human embryonic kidney (HEK) cells transfected with rat mGluR5 were plated in clear bottom assay plates for assay in a Functional Drug Screening System (FDSS). The cells were loaded with a Ca^2+-sensitive fluorescent dye (e.g., Fluo-4), and the plates were washed and placed in the FDSS instrument. After establishment of a fluorescence baseline for twelve seconds, the compounds of the present invention were added to the cells, and the response in cells was measured. Five minutes later, an mGluR5 agonist (e.g., glutamate, 3,5-dihydroxyphenylglycine, or quisqualate) was added to the cells, and the response of the cells was measured. Potentiation of the agonist response of mGluR5 by the compounds in the present invention was observed as an increase in response to non-maximal concentrations of agonist (here, glutamate) in the presence of compound compared to the response to agonist in the absence of compound.
The above described assay operated in two modes. In the first mode, a range of concentrations of the present compounds were added to cells, followed by a single fixed concentration of agonist. If a compound acted as a potentiator, an EC50 value for potentiation and a maximum extent of potentiation by the compound at this concentration of agonist was determined by non-linear curve fitting. In the second mode, several fixed concentrations of the present compounds were added to various wells on a plate, followed by a range of concentrations of agonist for each concentration of present compound; the EC50 values for the agonist at each concentration of compound were determined by non-linear curve fitting. A decrease in the EC50 value of the agonist with increasing concentrations of the present compounds (a leftward shift of the agonist concentration-response curve) is an indication of the degree of mGluR5 potentiation at a given concentration of the present compound. An increase in the EC50 value of the agonist with increasing concentrations of the present compounds (a rightward shift of the agonist concentration-response curve) is an indication of the degree of mGluR5 antagonism at a given concentration of the present compound. The second mode also indicates whether the present compounds also affect the maximum response to mGluR5 to agonists.
Human embryonic kidney (HEK) cells transfected with rat mGluR5 were plated in clear-bottomed, poly-D-lysine-coated assay plates in glutamate-glutamine-free medium growth and incubated overnight at 37° C. in 5% CO2. The following day, cells were loaded with 2 μM calcium indicator dye, fluo-4 AM, for 1 h at 37° C. Dye was removed and replaced with assay buffer containing 1× Hanks balanced salt solution (Invitrogen, Carlsbad, Calif.), 20 mM HEPES, and 2.5 mM probenecid, pH 7.4. Cell plates were then loaded into the Functional Drug Screening System 6000 (FDSS 6000, Hamamatsu, Japan). After establishment of a fluorescence baseline for twelve seconds, the compounds of the present invention were added to the cells, and the response in cells was measured. Five minutes later, an mGluR5 agonist (e.g., glutamate, 3,5-dihydroxyphenylglycine, or quisqualate) was added to the cells, and the response of the cells was measured during a 1 minute incubation with agonists. Typically, the effect of test compounds of the present invention was on an EC20 concentration of glutamate was measured. All test compounds were dissolved and diluted in 100% DMSO and then serially diluted into assay buffer for a 2.5× stock in 0.25% DMSO; stock compounds were then added to the assay for a final DMSO concentration of 0.1%. Calcium fluorescence measures were recorded as fold over basal fluorescence; raw data was then normalized to the maximal response to agonist. Potentiation of the agonist response of mGluR5 by the compounds in the present invention was observed as an increase in response to non-maximal concentrations of agonist (here, glutamate) in the presence of compound compared to the response to agonist in the absence of compound. […]

[1] = HEK293, maximum extent of potentiation, normalized to maximal response to glutamate, SAR tables, read-out: % Glu Max
[2] = Table 1, EC50 for potentiating the mGluR5 receptor, unit inferred
[3] = potentiation of glutamate response, HEK cells transfected with rat mGluR5, SAR tables
[4] = HEK293, read-out: % Glu Max, maximum extent of potentiation, normalized to maximal response to glutamate, SAR tables

T1 sequence (P31424 21-1203): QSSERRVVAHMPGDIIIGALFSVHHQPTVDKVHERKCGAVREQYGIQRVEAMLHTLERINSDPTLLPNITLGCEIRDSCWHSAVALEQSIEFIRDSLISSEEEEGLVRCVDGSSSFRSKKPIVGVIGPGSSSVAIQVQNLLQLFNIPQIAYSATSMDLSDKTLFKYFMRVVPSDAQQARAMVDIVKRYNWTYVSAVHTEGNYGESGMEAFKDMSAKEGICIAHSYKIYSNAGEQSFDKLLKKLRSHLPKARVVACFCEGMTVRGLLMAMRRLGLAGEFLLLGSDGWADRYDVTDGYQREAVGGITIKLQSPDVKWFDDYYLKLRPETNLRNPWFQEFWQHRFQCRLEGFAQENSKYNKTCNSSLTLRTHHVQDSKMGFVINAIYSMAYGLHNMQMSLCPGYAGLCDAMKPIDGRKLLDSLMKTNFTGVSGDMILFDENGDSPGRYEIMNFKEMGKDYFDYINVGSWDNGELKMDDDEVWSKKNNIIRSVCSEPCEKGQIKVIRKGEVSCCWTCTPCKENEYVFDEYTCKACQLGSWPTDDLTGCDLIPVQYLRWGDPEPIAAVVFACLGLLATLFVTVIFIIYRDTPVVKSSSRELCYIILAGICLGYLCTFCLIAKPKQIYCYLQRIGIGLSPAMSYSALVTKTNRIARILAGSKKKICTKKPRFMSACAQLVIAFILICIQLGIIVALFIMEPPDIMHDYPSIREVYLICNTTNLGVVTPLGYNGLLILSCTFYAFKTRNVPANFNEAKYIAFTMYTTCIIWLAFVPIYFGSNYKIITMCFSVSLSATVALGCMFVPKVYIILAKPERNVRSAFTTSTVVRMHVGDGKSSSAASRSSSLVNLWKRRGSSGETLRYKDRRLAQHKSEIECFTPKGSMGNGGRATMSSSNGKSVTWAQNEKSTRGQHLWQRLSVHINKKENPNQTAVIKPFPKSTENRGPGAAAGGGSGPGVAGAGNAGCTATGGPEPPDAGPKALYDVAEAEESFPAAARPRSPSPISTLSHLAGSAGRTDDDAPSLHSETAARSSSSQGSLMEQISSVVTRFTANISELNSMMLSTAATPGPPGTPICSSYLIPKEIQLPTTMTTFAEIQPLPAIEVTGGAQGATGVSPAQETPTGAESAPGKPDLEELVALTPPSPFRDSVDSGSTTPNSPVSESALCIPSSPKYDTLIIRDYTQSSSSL

Row | Compound | Emax [1] [%] | EC50 [2] [µM] | EC50 [3] [µM] | EC50 (nM) [3] | Emax [4] [%]
1 | O=C(NCC1CCCCC1)c1ccc(C#Cc2ccccc2)cc1 [N-(cyclohexylmethyl)-4-(phenylethynyl)benzamide] |  | 0.0687 |  |  | 
2 | CCCCNC(=O)c1ccc(C#Cc2ccccc2)cc1 [N-butyl-4-(phenylethynyl)benzamide] |  | 0.0335 |  |  | 
3 | O=C(c1ccc(C#Cc2ccccc2)cc1)N1CCC(O)(c2ccc(F)cc2)CC1 [Compound 7e] |  |  | 1.19 |  | 87
4 | O=C(c1ccc(C#Cc2ccccc2)cc1)N1CCN(c2ccccc2F)CC1 [(4-(2-fluorophenyl)piperazin-1-yl)(4-(phenylethynyl)phenyl)methanone] |  | 5.14 |  |  | 
5 | O=C(c1ccc(C#Cc2ccccc2)cc1)N1CCC(O)(c2cccc(F)c2)CC1 [Compound 7f] |  |  | 1.6 |  | 92
6 | O=C(c1ccc(C#Cc2ccccc2)cc1)N1CCC(O)(c2cccc(F)c2)CC1 [drawing 160, (4-(3-fluorophenyl)-4-hydroxypiperidin-1-yl)(4-(phenylethynyl)phenyl)methanone] |  | 1.77 |  |  | 
7 | O=C(NCCCO)c1ccc(C#Cc2ccccc2)cc1 [N-(3-hydroxypropyl)-4-(phenylethynyl)benzamide] |  | 0.0862 |  |  | 
8 | CN1CCN(C2CCN(C(=O)c3ccc(C#Cc4ccccc4)cc3)CC2)CC1 [(4-(4-methylpiperazin-1-yl)piperidin-1-yl)(4-(phenylethynyl)phenyl)methanone] |  | 0.132 |  |  | 
9 | O=C(c1ccc(C#Cc2ccccc2)cc1)N1CCCC(O)C1 (centres unmarked) [(3-hydroxypiperidin-1-yl)(4-(phenylethynyl)phenyl)methanone] |  | 0.134 |  |  | 
10 | CCCC(C)NC1CCN(C(=O)c2ccc(C#Cc3ccccc3)cc2)CC1 (centres unmarked) [(4-(pentan-2-ylamino)piperidin-1-yl)(4-(phenylethynyl)phenyl)methanone] |  | 0.0595 |  |  | 
11 | CC(C)(C)CCNC(=O)c1ccc(-c2nc(-c3ccccc3)no2)cc1 [N-(3,3-dimethylbutyl)-4-(3-phenyl-1,2,4-oxadiazol-5-yl)benzamide] |  | 1.16 |  |  | 
12 | CC1CN(C(=O)c2ccc(C#Cc3ccccc3)cc2)CC(C)O1 (centres unmarked) [(2,6-dimethylmorpholino)(4-(phenylethynyl)phenyl)methanone] |  | 0.0889 |  |  | 
13 | CC1(O)CCN(C(=O)c2ccc(C#Cc3ccccc3)cc2)CC1 [Compound 7a, (4-hydroxy-4-methylpiperidin-1-yl)(4-(phenylethynyl)phenyl)methanone] |  | 0.0394 | 0.0035 |  | 82.5
14 | O=C(c1ccc(C#Cc2ccccc2)cc1)N1CCN(c2ccccc2)CC1 [(4-(phenylethynyl)phenyl)(4-phenylpiperazin-1-yl)methanone] |  | 2.06 |  |  | 
15 | CCCNC(=O)c1ccc(-c2nc(-c3ccc(F)cc3)no2)cc1 [4-(3-(4-fluorophenyl)-1,2,4-oxadiazol-5-yl)-N-propylbenzamide] |  | 2.03 |  |  | 
16 | O=C(c1ccc(/C=C/c2ccccc2)cc1)N1CCC(O)CC1 [(E)-(4-hydroxypiperidin-1-yl)(4-styrylphenyl)methanone] |  | 1.97 |  |  | 
17 | CCN1CCC[C@H]1CNC(=O)c1ccc(C#Cc2ccccc2)cc1 [(S)-N-((1-ethylpyrrolidin-2-yl)methyl)-4-(phenylethynyl)benzamide] |  | 1.03 |  |  | 
18 | CC(C)CCNC(=O)c1ccc(C#Cc2ccccc2)cc1 [N-isopentyl-4-(phenylethynyl)benzamide] |  | 0.0273 |  |  | 
19 | C[C@@H](CNC(=O)c1ccc(C#Cc2ccccc2)cc1)c1ccccc1 [(R)-4-(phenylethynyl)-N-(2-phenylpropyl)benzamide] |  | 0.0349 |  |  | 
20 | O=C(c1ccc(C#Cc2ccccc2)cc1)N1CCN(c2ccccn2)CC1 [(4-(phenylethynyl)phenyl)(4-(pyridin-2-yl)piperazin-1-yl)methanone] |  | 2.92 |  |  | 
21 | O=C(NCCc1ccccc1Cl)c1ccc(C#Cc2ccccc2)cc1 [N-(2-chlorophenethyl)-4-(phenylethynyl)benzamide] |  | 0.135 |  |  | 
22 | O=C(NC1CCc2ccccc21)c1ccc(C#Cc2ccccc2)cc1 (centres unmarked) [N-(2,3-dihydro-1H-inden-1-yl)-4-(phenylethynyl)benzamide] |  | 0.146 |  |  | 
23 | O=C(c1ccc(C#Cc2ccccc2)cc1)N1CCC(NCC2CC2)CC1 [(4-(cyclopropylmethylamino)piperidin-1-yl)(4-(phenylethynyl)phenyl)methanone] |  | 2.79 |  |  | 
24 | CC(C)N1CCN(C(=O)c2ccc(C#Cc3ccccc3)cc2)CC1 [(4-isopropylpiperazin-1-yl)(4-(phenylethynyl)phenyl)methanone] |  | 1.19 |  |  | 

Continued, in another order:

Row | Emax [1] [%] | EC50 [2] [µM] | EC50 [3] [µM] | EC50 (nM) [3] | Compound | Emax [4] [%]
25 | 59.8 | 0.5 | 0.423 |  | CCCC1(O)CN(C(=O)c2ccc(C#Cc3ccccc3)cc2)C1 [Compound 9c, (3-hydroxy-3-propylazetidin-1-yl)(4-(phenylethynyl)phenyl)methanone] | 
26 |  |  |  | inactive | Cc1ccc(C#Cc2ccc(C(=O)N3CCC(O)CC3)cc2)cc1 [Compound 19h] | 
27 | 76 | 0.832 | 0.5 |  | Cc1cc(C#Cc2ccc(C(=O)N3CCC(O)CC3)cc2)ccc1F [Compound 19f, (4-((4-fluoro-3-methylphenyl)ethynyl)phenyl)(4-hydroxypiperidin-1-yl)methanone] | 
28 | 58 | 2.03 | 1.97 |  | O=C(c1ccc(C#Cc2ccc(F)cc2F)cc1)N1CCC(O)CC1 [Compound 19g, (4-((2,4-difluorophenyl)ethynyl)phenyl)(4-hydroxypiperidin-1-yl)methanone] | 
29 | 104 | 0.073 | 0.0595 |  | O=C(c1ccc(C#Cc2cccc(F)c2)cc1)N1CC(O)C1 [Compound 20n, (4-((3-fluorophenyl)ethynyl)phenyl)(3-hydroxyazetidin-1-yl)methanone] | 
30 | 80 | 0.0281 | 0.0273 |  | O=C(c1ccc(C#Cc2ccccc2F)cc1)N1CCC(O)CC1 [Compound 19a, (4-((2-fluorophenyl)ethynyl)phenyl)(4-hydroxypiperidin-1-yl)methanone] | 
31 | 82 | 0.119 | 0.089 |  | CC1(O)CN(C(=O)c2ccc(C#Cc3ccccc3)cc2)C1 [Compound 9b, (3-hydroxy-3-methylazetidin-1-yl)(4-(phenylethynyl)phenyl)methanone] | 
32 | 67.3 | 0.314 | 0.212 |  | O=C(c1ccc(C#Cc2ccccc2)cc1)N1CC(O)C1 [Compound 9a, (3-hydroxyazetidin-1-yl)(4-(phenylethynyl)phenyl)methanone] | 
33 | 52 | 0.0739 | 0.0687 |  | O=C(c1ccc(C#Cc2ccc(F)c(F)c2)cc1)N1CCC(O)CC1 [Compound 19d, (4-((3,4-difluorophenyl)ethynyl)phenyl)(4-hydroxypiperidin-1-yl)methanone] | 
34 | 92 | 0.0206 | 0.0194 |  | CC1(O)CCN(C(=O)c2ccc(C#Cc3cccc(F)c3)cc2)CC1 [Compound 20b, (4-((3-fluorophenyl)ethynyl)phenyl)(4-hydroxy-4-methylpiperidin-1-yl)methanone] | 
35 | 49 | 2.45 | 2.21 |  | O=C(c1ccc(C#Cc2ccccn2)cc1)N1CCC(O)CC1 [Compound 19k] | 
36 | 98 | 0.187 | 0.166 |  | O=C(c1ccc(C#Cc2ccccc2F)cc1)N1CC(O)C1 [Compound 20m, (4-((2-fluorophenyl)ethynyl)phenyl)(3-hydroxyazetidin-1-yl)methanone] | 
37 | 112 | 0.00532 | 0.0053 |  | O=C(c1ccc(C#Cc2cccc(F)c2)cc1)N1CCOCC1 [Compound 20j, (4-((3-fluorophenyl)ethynyl)phenyl)(morpholino)methanone] | 

Source: patent US8853392B2, “Benzamide mGluR5 positive allosteric modulators and methods of making and using same” (Vanderbilt University, priority 2007, dated 2014)
